Source: ChEMBL document CHEMBL1134046, “Phthalazine PDE4 inhibitors. Part 2: the synthesis and biological evaluation of 6-methoxy-1,4-disubstituted derivatives” (Bioorg Med Chem Lett, 2001)
Values belong to the compound of their own block, whether it stands above or below them.

Assays:
Phosphodiesterase 4 [1] = molecular target: T1, Phosphodiesterase 4 (Homo sapiens, UniProt P27815+Q08499+Q07343+Q08493); assay: Inhibition of rolipram binding to PDE4; type: protein assay
Phosphodiesterase 4 [2] = molecular target: T1, Phosphodiesterase 4; assay: Inhibition of human neutrophil Phosphodiesterase 4; type: protein assay
Homo sapiens = species on record: Homo sapiens; assay: Inhibition of TNF-alpha synthesis in human monocytes; type: functional, organism-based
Phosphodiesterase 4 [3] = molecular target: T1, Phosphodiesterase 4; assay: Inhibition of human neutrophil phosphodiesterase 4; type: protein assay
Phosphodiesterase 4 [4] = molecular target: T1, Phosphodiesterase 4
Description: Inhibition of human Phosphodiesterase 4

Phosphodiesterase 4 [5] = molecular target: T1, Phosphodiesterase 4; assay: Percent inhibition of human Phosphodiesterase 4 at 10e-7 M; type: protein assay
Phosphodiesterase 4 [6] = molecular target: T1, Phosphodiesterase 4; assay: Percent inhibition of human neutrophil phosphodiesterase 4 at 10e-7 M; type: protein assay
Phosphodiesterase 4 [7] = molecular target: T1, Phosphodiesterase 4; assay: Inhibition of rolipram binding to PDE4 at 10e-5 M; type: protein assay
Rattus norvegicus [8] = species on record: Rattus norvegicus; assay: Increased acid secretion in the isolated whole rat stomach; type: functional
Canis familiaris [9] = assay: Emetic effect in dog after intravenous administration; type: functional; settings: Canis lupus familiaris
Cavia porcellus [10] = assay: Percent inhibition of eosinophil infiltration in the guinea pig at 30 uM/kg (ip); type: functional
Rattus norvegicus [11] = species on record: Rattus norvegicus; assay: In vitro metabolic stability in rat hepatocytes; type: ADME, Hepatocyte
[12] = Oral bioavailability in rat; type: ADME, organism-based; settings: in vivo
Phosphodiesterase 4 [13] = molecular target: T1, Phosphodiesterase 4; assay: Inhibition of rolipram binding to PDE4 at 10e-6 M; type: protein assay
Canis familiaris [14] = assay: Emetic effect in dog on intravenous administration; type: functional; settings: Canis lupus familiaris
Cavia porcellus [15] = assay: Percent inhibition of eosinophil infiltration in the guinea pig at 30 uM/kg ip; type: functional
Rattus norvegicus [16] = species on record: Rattus norvegicus; assay: In vitro and metabolic stability was determined; type: ADME

SMILES: COc1ccc2c(Cc3c(Cl)cncc3Cl)nnc(N3CCOCC3)c2c1
Ki (Phosphodiesterase 4 [1]): 452 nM | IC50 (Phosphodiesterase 4 [2]): 132 nM | IC50 (Homo sapiens): 62 nM

SMILES: COc1ccc2c(Cc3c(Cl)cncc3Cl)nnc(Oc3ccccc3)c2c1
Ki (Phosphodiesterase 4 [1]): 436 nM | IC50 (Homo sapiens): 166 nM | IC50 (Phosphodiesterase 4 [3]): 132 nM

SMILES: COc1ccc2c(Cc3c(Cl)cncc3Cl)nnc(-c3nccs3)c2c1
Ki (Phosphodiesterase 4 [1]): 34 nM | IC50 (Homo sapiens): 8 nM | IC50 (Phosphodiesterase 4 [4]): 14 nM

SMILES: COc1ccc2c(Cc3c(Cl)cncc3Cl)nnc(CCCCc3ccccc3)c2c1
Inhibition (Phosphodiesterase 4 [5]): 19%

SMILES: COc1ccc2c(Cc3c(Cl)cncc3Cl)nnc(N3CCCC3=O)c2c1
Inhibition (Phosphodiesterase 4 [6]): 6%

SMILES: COc1ccc2c(Cc3c(Cl)cncc3Cl)nnc(N3CCN(C)CC3)c2c1
Inhibition (Phosphodiesterase 4 [5]): 16%

SMILES: COc1ccc2c(Cc3c(Cl)c[n+]([O-])cc3Cl)nnc(-c3nccs3)c2c1
Ki (Phosphodiesterase 4 [1]): 17 nM | IC50 (Homo sapiens): 3 nM | IC50 (Phosphodiesterase 4 [4]): 4 nM

SMILES: COc1ccc2c(Cc3c(Cl)cncc3Cl)nncc2c1
Inhibition (Phosphodiesterase 4 [7]): 42%

SMILES: COc1ccc2c(Cc3c(Cl)cncc3Cl)nncc2c1OC1CCCC1
IC50 (Homo sapiens): 224 nM

SMILES: COc1ccc2c(Cc3c(Cl)cncc3Cl)nnc(C#Cc3ccccc3)c2c1
Inhibition (Phosphodiesterase 4 [13]): 21% | IC50 (Homo sapiens): 273 nM | IC50 (Phosphodiesterase 4 [4]): 48 nM

SMILES: COc1ccc([C@]2(C#N)CC[C@@H](C(=O)O)CC2)cc1OC1CCCC1 [CILOMILAST]
IC50 (Rattus norvegicus [8]): 1000 nM | Inhibition (Cavia porcellus [10]): 17% | IC50 (Homo sapiens): 158 nM | Met. stab. Cl. int (Rattus norvegicus [11]): 9.2 ul min-1 (10e6*cells)-1 | ED50 (Canis familiaris [14]): 10 µmol/kg | bioavailability [12]: 35%

SMILES: COc1ccc2c(Cc3c(Cl)cncc3Cl)nnc(-c3ccccc3)c2c1
IC50 (Rattus norvegicus [8]): 4000 nM | Ki (Phosphodiesterase 4 [1]): 271 nM | Inhibition (Cavia porcellus [15]): 34% | ED50 (Canis familiaris [9]): > 30 µmol/kg | IC50 (Homo sapiens): 46 nM | Met. stab. Cl. int (Rattus norvegicus [16]): 5.8 ul min-1 (10e6*cells)-1 | IC50 (Phosphodiesterase 4 [4]): 37 nM | bioavailability [12]: 27%

Continued, in another order:

Ki (Phosphodiesterase 4 [1]): 204 nM | IC50 (Homo sapiens): 87 nM | IC50 (Phosphodiesterase 4 [4]): 93 nM
SMILES: C#Cc1nnc(Cc2c(Cl)cncc2Cl)c2ccc(OC)cc12

Inhibition (Phosphodiesterase 4 [5]): 23%
SMILES: CCc1nnc(Cc2c(Cl)cncc2Cl)c2ccc(OC)cc12

IC50 (Rattus norvegicus [8]): > 30000 nM | Ki (Phosphodiesterase 4 [1]): 241 nM | IC50 (Homo sapiens): 72 nM | Met. stab. Cl. int (Rattus norvegicus [11]): 1.5 ul min-1 (10e6*cells)-1 | IC50 (Phosphodiesterase 4 [3]): 72 nM | bioavailability [12]: 27%
SMILES: COc1ccc2c(Cc3c(Cl)cncc3Cl)nnc(-n3cncn3)c2c1
Inhibition (Rattus norvegicus [8]): 33% | ED50 (Canis familiaris [9]): > 30 µmol/kg | Inhibition (Cavia porcellus [10]): 37%

Inhibition (Phosphodiesterase 4 [6]): 17%
SMILES: COc1ccc2c(Cc3c(Cl)cncc3Cl)nnc(-n3ccnc3)c2c1

Inhibition (Phosphodiesterase 4 [5]): 39%
SMILES: COc1ccc2c(Cc3c(Cl)cncc3Cl)nnc(N(C)C)c2c1

Inhibition (Phosphodiesterase 4 [5]): 19%
SMILES: CCCNc1nnc(Cc2c(Cl)cncc2Cl)c2ccc(OC)cc12

Ki (Phosphodiesterase 4 [1]): 89 nM | IC50 (Homo sapiens): 9 nM | IC50 (Phosphodiesterase 4 [4]): 38 nM
SMILES: COc1ccc2c(Cc3c(Cl)cncc3Cl)nnc(N3CCCC3)c2c1
